From patent US9290490B2 (Merck Sharp & Dohme Corp., priority 2011, dated 2016)
pIC50: −log10 of the molar value. Where a name gives a salt, the structure may show the parent alone. Read-outs that look alike come from different tables or passages of the source.

Biological target: recombinant human GST-Syk (Homo sapiens (Human), UniProt P43405)
Experiment: Homogeneous Time-Resolved Fluorescence (HTRF) Assay for the Recombinant Human Syk Enzyme
Type: biochemical
Conditions: recombinant human GST-Syk 5 pM, ATP 25 μM
Protocol: Homogeneous Time-Resolved Fluorescence (HTRF) Assay for the Recombinant Human Syk Enzyme:
A recombinant GST-hSyk fusion protein was used to measure potency of compounds to inhibit human Syk activity. The recombinant human GST-Syk (Carna Biosciences #08-176) (5 pM final concentration) was incubated with various concentrations of the inhibitor diluted in DMSO (0.1% final concentration) for 10 minutes at room temperature in 15 mM Tris-HCl (pH 7.5), 0.01% tween 20, 2 mM DTT in 384 well plate format. To initiate the reaction the biotinylated substrate peptide (250 nM final concentration) that contains the phosphorylation site for Syk was added with magnesium (5 mM final concentration) and ATP (25 μM final concentration). Final volume of the reaction was 10 μL. Phosphorylation of the peptide was allowed to proceed for 45′ at room temperature. To quench the reaction and detect the phosphorylated product, 2 nM of a Europium-anti-phosphotyrosine antibody (Perkin Elmer #AD0161) and 70 nM SA-APC (Perkin-Elmer #CR130-100) were added together in 15 mM Tris pH 7.5, 40 mM EDTA, 0.01% Tween 20. Final volume of the quenching solution was 10 μL. The resulting HTRF signal was measured after 30 minutes on a EnVision (Perkin-Elmer) reader using a time-resolved fluorescence protocol. […] IC50 values are also provided for the following representative compounds: […]

[1] = 10-dose titration, read-out: rhSyk
[2] = read-out: rhSyk Activity (IC50)

| Compound | pIC50 [1] | pIC50 [2] |
| --- | --- | --- |
| Cc1cc(Nc2nccc(C(F)(F)F)n2)cc(-c2cnc(C(C)(O)[C@H]3CC[C@H](c4nn[nH]n4)CC3)s2)c1 (single isomer, unassigned) [Example 6 (slower eluting enantiomer), 2-{[3-(2-{1-hydroxy-1-[trans-4-(2H-tetrazol-5-yl)cyclohexyl]ethyl}-1,3-thiazol-5-yl)-5-methylphenyl]amino}-4-(trifluoromethyl)pyrimidin-1-ium trifluoroacetate] |  | ≥ 7.00 |
| COC(=O)[C@@H]1CC(C(=O)c2ncc(-c3cc(C)cc(Nc4nccc(C(F)(F)F)n4)c3)s2)[C@H](O)C1(C)C (stereo partly drawn) [Example 14, methyl (1,3-cis, 1,4-trans)-3-hydroxy-2,2-dimethyl-4-{[5-(3-methyl-5-{[4-(trifluoromethyl)-pyrimidin-2-yl]amino}phenyl)-1,3-thiazol-2-yl]carbonyl}cyclopentanecarboxylate] | 6.07 | 6.00 to 7.00 |
| Cc1cc(Nc2nccc(C(F)F)n2)cc(-c2cnc(C(C)(O)[C@H]3CC[C@H](C(=O)O)CC3)s2)c1 (single isomer, unassigned) [Example 2-77, trans-4-{(1R or S)-[5-(3-{[4-(difluoromethyl)pyrimidin-2-yl]amino}-5-methylphenyl)-1,3-thiazol-2-yl]-1-hydroxyethyl}cyclohexanecarboxylic acid] | > 9.30 | ≥ 7.00 |
| Cc1cc(Nc2nccc(C(F)(F)F)n2)cc(-c2cnc(C(C)(O)C3CCC(C(=O)O)C3)s2)c1 (stereo not drawn) [Example 3-4] |  | ≥ 7.00 |
| CCC(=O)O[C@@H]1CCC(C(C)(O)c2ncc(-c3cc(C)cc(Nc4nccc(C)n4)c3)s2)C[C@H]1C (stereo partly drawn) [Example 2-16] | 7.03 | ≥ 7.00 |
| Cc1cc(Nc2nccc(C)n2)cc(-c2cnc(CC3(O)CCC(C(=O)OC(C)(C)C)CC3)s2)c1 (single isomer, unassigned) [Example 5, Step 3 (cis isomer), tert-butyl cis-4-hydroxy-4-[(5-{3-methyl-5-[(4-methylpyrimidin-2-yl)amino]phenyl}-1,3-thiazol-2-yl)methyl]cyclohexanecarboxylate] |  | 6.00 to 7.00 |
| Cc1cc(Nc2nccc(C)n2)cc(-c2cnc(CC3(O)CCC(C(=O)OC(C)(C)C)CC3)s2)c1 (single isomer, unassigned) [Example 5, Step 3 (trans isomer), tert-butyl trans-4-hydroxy-4-[(5-{3-methyl-5-[(4-methylpyrimidin-2-yl)amino]phenyl}-1,3-thiazol-2-yl)methyl]cyclohexanecarboxylate] | 6.50 | 6.00 to 7.00 |
| Cc1cc(Nc2ncc(F)c(C)n2)cc(-c2cnc(C(O)(CO)C3CCC(C(=O)O)CC3)s2)c1 (stereo not drawn) [Example 2-109] | 7.82 | ≥ 7.00 |
| Cc1cc(Nc2nccc(C(F)(F)F)n2)cc(-c2cnc([C@@](O)(C3CC3)[C@H]3CC[C@H](C(=O)O)CC3)s2)c1 (single isomer, unassigned) [Example 2 (from Intermediate 28 slower eluting enantiomer), trans-4-{(R or S)-cyclopropyl(hydroxy)[5-(3-methyl-5-{[4-(trifluoromethyl)pyrimidin-2-yl]amino}phenyl)-1,3-thiazol-2-yl]methyl}cyclohexanecarboxylic] |  | ≥ 7.00 |
| Cc1cc(Nc2nccc(C(F)(F)F)n2)cc(-c2cnc(C(C)(O)C3CCC(C(=O)O)C3)s2)c1 (stereo not drawn) [Example 3-1] |  | ≥ 7.00 |
| Cc1cc(Nc2nccc(C(F)(F)F)n2)cc(-c2cnc(C(C)(O)C3CCC(C)(C(=O)O)CC3)s2)c1 (stereo not drawn) [Example 3-6] |  | ≥ 7.00 |
| Cc1cc(Nc2nccc(C(F)(F)F)n2)cc(-c2cnc(C(C)(O)C3CCC(C(=O)O)C3)s2)c1 (stereo not drawn) [Example 3-2] | 8.70 | ≥ 7.00 |
| CCCCOC(=O)[C@H]1CC[C@H](C(C)(O)c2ncc(-c3cc(C)cc(Nc4nccc(C(F)F)n4)c3)s2)CC1 (single isomer, unassigned) |  | 6.00 to 7.00 |
| Cc1cc(Nc2nccc(C(F)(F)F)n2)cc(-c2cnc(C(O)C3CCC(O)CC3(C)C)s2)c1 (stereo not drawn) [Example 12, 4-{hydroxy[5-(3-methyl-5-{[4-(trifluoromethyl)pyrimidin-2-yl]amino}phenyl)-1,3-thiazol-2-yl]methyl}-3,3-dimethylcyclohexanol] |  | ≥ 7.00 |
| Cc1cc(Nc2nccc(C(F)(F)F)n2)cc(-c2cnc(C(O)[C@H]3CC[C@@H](C(N)=O)CC3)s2)c1 [Example 7 (cis isomer), cis-4-{hydroxy[5-(3-methyl-5-{[4-(trifluoromethyl)pyrimidin-2-yl]amino}phenyl)-1,3-thiazol-2-yl]methyl}cyclohexanecarboxamide] |  | ≥ 7.00 |
| Cc1cc(Nc2nccc(C)n2)cc(-c2cnc(C(C)(O)C3CCC(NOC(=O)Cc4ccccc4)CC3)s2)c1 (stereo not drawn) [Example 2-57] | 6.91 | 6.00 to 7.00 |

Results, then the compound that gave them:

| pIC50 [1] | pIC50 [2] | Compound |
| --- | --- | --- |
| 8.70 | ≥ 7.00 | Cc1cc(Nc2nccc(C(F)(F)F)n2)cc(-c2cnc(C(F)C3CCC(C(=O)O)CC3)s2)c1 (stereo not drawn) [Example 4-6] |
|  | ≥ 7.00 | Cc1cc(Nc2nccc(C(F)F)n2)cc(-c2cnc(C(C)(O)[C@H]3CC[C@H](C(=O)O)CC3)s2)c1Br (stereo partly drawn) [Example 8-1] |
| > 9.30 | ≥ 7.00 | C[C@](O)(c1ncc(-c2cc(CO)cc(Nc3nccc(C(F)(F)F)n3)c2)s1)[C@H]1CC[C@H](C(=O)O)CC1 (single isomer, unassigned) [Example 15, trans-4-[(1R or 1S)-1-hydroxy-1-{5-[3-(hydroxymethyl)-5-{[4-(trifluoromethyl)pyrimidin-2-yl]amino}phenyl]-1,3-thiazol-2-yl}ethyl]cyclohexanecarboxylic acid] |
| 8.52 | ≥ 7.00 | Cc1cc(Nc2nccc(C(F)(F)F)n2)cc(-c2cnc(C(N)[C@H]3CC[C@H](C(=O)O)CC3)s2)c1 (stereo partly drawn) [Example 2-112] |
|  | ≥ 7.00 | Cc1cc(Nc2nccc(C(F)(F)F)n2)cc(-c2cnc(C(O)(CF)[C@H]3CC[C@H](C(=O)O)CC3)s2)c1 (stereo partly drawn) [Example 9, trans-4-{2-fluoro-1-hydroxy-1-[5-(3-methyl-5-{[4-(trifluoromethyl)pyrimidin-2-yl]amino}phenyl)-1,3-thiazol-2-yl]ethyl}cyclohexanecarboxylic acid] |
|  | ≥ 7.00 | Cc1cc(Nc2nccc(C)n2)cc(-c2cnc(C[C@]3(O)CC[C@@H](C(=O)O)CC3)s2)c1 [Example 5 (cis isomer), cis-4-hydroxy-4-[(5-{3-methyl-5-[(4-methylpyrimidin-2-yl)amino]phenyl}-1,3-thiazol-2-yl)methyl]cyclohexanecarboxylic acid] |
|  | ≥ 7.00 | Cc1cc(Nc2nccc(C(F)(F)F)n2)cc(-c2cncs2)c1 [Intermediate 21, N-[3-methyl-5-(1,3-thiazol-5-yl)phenyl]-4-(trifluoromethyl)pyrimidin-2-amine] |
|  | ≥ 7.00 | CCCCOC(=O)[C@H]1CC[C@H](C(C)(O)c2ncc(-c3cc(C)cc(Nc4nccc(C(F)(F)F)n4)c3)s2)CC1 (relative stereo) [Example 1, Step 1, butyl trans-4-{1-hydroxy-1-[5-(3-methyl-5-{[4-(trifluoromethyl)pyrimidin-2-yl]amino}-phenyl)-1,3-thiazol-2-yl]ethyl}cyclohexanecarboxylate] |
| 9.00 | ≥ 7.00 | CC(O)(c1ncc(-c2cc(Nc3nccc(C(F)(F)F)n3)cc(C3CC3)c2)s1)[C@H]1CC[C@H](C(=O)O)CC1 (single isomer, unassigned) [Example 16, trans-4-{(1R or 1S)-[5-(3-cyclopropyl-5-{[4-(trifluoromethyl)pyrimidin-2-yl]amino}phenyl)-1,3-thiazol-2-yl]-1-hydroxyethyl}cyclohexanecarboxylic acid] |
|  | ≥ 7.00 | Cc1ccnc(Nc2cc(C)c(Br)c(-c3cnc([C@](C)(O)[C@H]4CC[C@H](C(=O)O)CC4)s3)c2)n1 (single isomer, unassigned) [Example 8, trans-4-[(1R or 1S)-1-(5-{2-bromo-3-methyl-5-[(4-methylpyrimidin-2-yl)amino]phenyl}-1,3-thiazol-2-yl)-1-hydroxyethyl]cyclohexanecarboxylic acid] |
| > 9.30 | ≥ 7.00 | CC(O)(c1ncc(-c2cc(Nc3nccc(C(F)(F)F)n3)cc(C(F)F)c2)s1)[C@H]1CC[C@H](C(=O)O)CC1 (single isomer, unassigned) [Example 18, trans-4-((1R or 1S)-{5-[3-(difluoromethyl)-5-{[4-(trifluoromethyl)pyrimidin-2-yl]amino}phenyl]-1,3-thiazol-2-yl}-1-hydroxyethyl)cyclohexanecarboxylic acid] |
|  | ≥ 7.00 | Cc1cc(Nc2nccc(C(F)(F)F)n2)cc(-c2cnc(C(C)(O)C3CCC(C)(C(=O)O)CC3)s2)c1 (stereo not drawn) [Example 3-7] |
|  | ≥ 7.00 | Cc1cc(Nc2nccc(C(F)(F)F)n2)cc(-c2cnc(C(C)(O)C3CCC(C)(O)CC3)s2)c1 (stereo not drawn) [Example 23, 4-{1-hydroxy-1-[5-(3-methyl-5-{[4-(trifluoromethyl)pyrimidin-2-yl]amino}phenyl)-1,3-thiazol-2-yl]ethyl}-1-methylcyclohexanol] |
|  | ≥ 7.00 | Cc1cc(Nc2nccc(C)n2)cc(-c2cnc(C[C@H]3CC[C@H](C(=O)O)CC3)s2)c1 (single isomer, unassigned) [Example 13 (trans, slower eluting isomer), trans-4-[(5-{3-methyl-5-[(4-methylpyrimidin-2-yl)amino]-phenyl}-1,3-thiazol-2-yl)methyl]cyclohexanecarboxylic acid] |
